The values below come from patent publication US10155756B2, “Pyrazolo[1,5-A]pyridine compounds and use thereof” (GUANGZHOU INSTITUTES OF BIOMEDICINE AND HEALTH, CHINESE …, priority 2014, dated 2018).

The test system of data set [1] is clinical sorted MDR-TB P105. As to the kind of experiment: microbe, parasite or virus in culture. The format is cell-based. The note with it: Mycobacterium tuberculosis, MDRTBP105.
The test system of data set [2] is clinical sorted MDR-TB P103. As to the kind of experiment: microbe, parasite or virus in culture. Format: cell-based. As to conditions: Mycobacterium tuberculosis, MDRTBP103.
Data set [3] concerns clinical sorted MDR-TB P91. As to the kind of experiment: microbe, parasite or virus in culture. The format is cell-based. The note with it: Mycobacterium tuberculosis, MDRTBP91.
The nature of the next data set: in vivo. The note with it: rat; for bioavailability / AUC(0-inf) / Cmax / T^1/2 / Tmax: SD. Also on record: species or system SD rats. The protocol: Example 55: Pharmacokinetic Studies of Compounds TJ170298 and TJ170385
1. Administration and Sample Collection a. Rat intravenous administration: SD rats 3, weight 180˜220 g. Fasting 12 h before administration, a small amount of food was allowed during the experiment, and water was free. The compounds TJ170298 and TJ170385 were administered intravenously at a dose of 2 mg/kg. The rats were respectively taken 0.3 mL orbital blood at 2 min, 10 min, 30 min, 1.0 h, 2.0 h, 3.0 h, 4.0 h, 6.0 h, 8.0 h, 12.0 h, 21 h, 24.0 h, 30 h, 36 h, 48 h, 60 h, 72 h after administration, which was then placed in heparinized test tube, centrifuged 10 min at 6000 rpm, and plasma was separated, preserved at 4° C. to be measured. […]
b. Rat oral administration: SD rats 3, weight 180˜220 g. Fasting for 12 h before administration, a small amount of food was allowed during the experiment, and water was free. The compounds TJ170298 and TJ170385 were orally administered at a dose of 10 mg/kg, respectively. The rats were respectively taken 0.3 mL orbital blood at 2 min, 10 min, 30 min, 1.0 h, 2.0 h, 3.0 h, 4.0 h, 6.0 h, 8.0 h, 12.0 h, 21 h, 24.0 h, 30 h, 36 h, 48 h, 60 h, 72 h after administration, which was then placed in heparinized test tube, centrifuged 10 min at 6000 rpm, and plasma was separated, preserved at 4° C. to be measured.
2. Determination of Plasma Samples a. Plasma Sample Treatment
150 μl of the internal standard solution ([…], acetonitrile solution) was added to 50 μL of the above plasma sample, mixed well; after eddy mixing for 2 min, centrifuge for 30 min (13000 rpm, 4° C.), supernatant was taken to another centriguge tube, and 20 μL of which was taken for LC/MS/MS analysis. […]
b. Preparation of Standard Curve
50 μL of rat blank plasma was taken, to which 10 μL of compound standard series solution was added to prepare compound plasma samples equivalent to plasma concentration of 20, 50, 100, 500, 1000, 2000, 4000, 6000, 12000, 40000 ng/mL. According to “plasma sample treatment” item, the standard curve was established. The concentration (X) of an analyte is as the abscissa, the peak area ratio (y) of the analyte and the internal standard is as the ordinate, and the regression is performed by the weighted (W=1/x2) least squares method to obtain the linear regression Equation, that is, the standard curve.
C. Data Processing and Analysis
The pharmacokinetic parameters of rats after administration were calculated by DAS 2.0 software.

For data set [4], the system named is mycobacterium tuberculosis self-luminescent bacteria H37Ra. The note with it: for spleen anti-tuberculosis activity compared with the positive control Rifampicin: in vivo.
Data set [5] deals with Mycobacterium tuberculosis standard strain H37Rv. As to the kind of experiment: Plate MIC of Example 53, standard strain H37Rv. The format is cell-based.
The subject of data set [6] is self-luminescent tuberculosis. The data set can be described thus: microbe, parasite or virus in culture. The format is cell-based.
Data set [7] relates to Mycobacterium tuberculosis standard strain H37Rv. As to the kind of experiment: MIC of Mycobacterium tuberculosis by a plate method. As to conditions: 7H11 plates, 37° C. for 4 weeks, colony count.
[8] abbreviates: Mycobacterium tuberculosis, 72 h, read-out: MIClux.
Setting [9] is: Mycobacterium tuberculosis, 72 h; read-out: MIClux.

Molecules are shown by their SMILES. In brackets after ≈: the same amount, converted by molar mass. Where a name gives a salt, the structure may show the parent alone. Read-outs that look alike come from different tables or passages of the source. Where only a bound is given, the exact number is not on record here.

Consider `CO[C@H]1/C=C/O[C@@]2(C)Oc3c(C)c(O)c4c(O)c(c(/C=N/N5CCN(C)CC5)c(O)c4c3C2=O)NC(=O)/C(C)=C\C=C\[C@H](C)[C@H](O)[C@@H](C)[C@@H](O)[C@@H](C)[C@H](OC(C)=O)[C@@H]1C` [RIF, rifampicin, reference compound], for which the MIC in data set [1] is > 10 µg/mL; in data set [2] it was > 10 µg/mL; in data set [3], 1 to 10 µg/mL (≈ 1.22 to 12.2 µM).

Compound `CCc1nn2ccc(Cl)cc2c1C(=O)NCc1ccc(N2CCC(c3ccc(OC(F)(F)F)cc3)CC2)cc1` [TJ170298 (hydrochloride), 5-chloro-2-ethyl-N-(4-(4-(4-(trifluoromethoxy)phenyl)piperidine-1-yl)benzyl) pyrazolo [1,5-a]pyridine-3-carboxamide] had a bioavailability in “in vivo” of 24.1%. Also, in the data set “in vivo” (iv, 2 mg/kg), the total exposure AUC(0-inf) amounted to 3900 ng·h/mL, the Cmax came out at 1550 ng/mL, the “T^1/2” value came out at 19.975 h and the Tmax came to 0.033 h. In addition, in “in vivo” (po, 10 mg/kg), the AUC(0-inf) came out at 4700 ng·h/mL, the maximum concentration (Cmax) came to 509 ng/mL, the “T^1/2” value was 19.699 h and the Tmax is 2 h.

With `CCc1nn2ccc(Cl)cc2c1C(=O)NCc1ccc(N2CCC(c3ccc(OC(F)(F)F)cc3)CC2)cc1` [TJ170298, 5-chloro-2-ethyl-N-(4-(4-(4-(trifluoromethoxy)phenyl)piperidine-1-yl)benzyl) pyrazolo [1,5-a]pyridine-3-carboxamide], the MIC in data set [1] was 0.15 µg/mL (≈ 0.269 µM); in data set [2], < 0.075 µg/mL; in data set [5] it was 0.012 µg/mL; in data set [3], < 0.075 µg/mL; in data set [6] (setting [8]), < 1 µg/mL. The “pharmacokinetic properties (in words)” value in the data set “in vivo” is “good pharmacokinetic properties”. For the same compound, the “in vivo anti-tuberculosis activity (luminous values within live mice)” value in data set [4] is “obvious in vivo anti-tuberculosis activity”. Further, the “in vivo anti-tuberculosis activity compared with the positive control Rifampicin” value in data set [4] is given as “equal to or better than that of the positive control Rifampicin”. For the same compound, the “spleen anti-tuberculosis activity compared with the positive control Rifampicin” value in data set [4] is reported as “bad than that of the positive control Rifampicin”.

For the compound `CCc1nn2ccc(Cl)cc2c1C(=O)NCc1ccc(C(F)(F)F)cc1` [TJ170322], the MIC was 0.1 µg/mL in data set [7] and < 1 µg/mL in data set [6] (setting [9]).

Turning to `Cc1nn2ccc(Cl)cc2c1C(=O)NCc1ccc(N2CCC(c3ccc(OC(F)(F)F)cc3)CC2)cc1` [TJ170372, 5-chloro-2-methyl-N-(4-(4-(4-(trifluoromethoxy)phenyl)piperidine-1-yl)benzyl) pyrazolo [1,5-a] pyridine-3-carboxamide], in data set [4], the “in vivo anti-tuberculosis activity (luminous values within live mice)” value was “obvious in vivo anti-tuberculosis activity”, the “in vivo anti-tuberculosis activity compared with the positive control Rifampicin” value is “equal to or better than that of the positive control Rifampicin” and the “spleen anti-tuberculosis activity compared with the positive control Rifampicin” value was “bad than that of the positive control Rifampicin”. Moreover, the MIC in data set [7] was 0.01 µg/mL. The MIC in data set [6] (setting [9]) is < 1 µg/mL.

As to `O=C(NCc1ccc(N2CCC(c3ccc(OC(F)(F)F)cc3)CC2)cc1)c1c(C2CC2)nn2ccc(Cl)cc12` [TJ170375, 5-chloro-2-cyclopropyl-N-(4-(4-(4-(trifluoromethoxy)phenyl)piperidine-1-substituted)benzyl) pyrazolo [1,5-a] pyridine-3-carboxamide], the figures for the MIC in data set [7] and in data set [6] (setting [9]) were 0.1 µg/mL and < 1 µg/mL, respectively.

Take `Cc1nn2ccccc2c1C(=O)NCc1ccc(N2CCC(c3ccc(OC(F)(F)F)cc3)CC2)cc1` [TJ170381, 2-methyl-N-(4-(4-(4-(trifluoromethoxy)phenyl)piperidine-1-yl)benzyl) pyrazolo [1,5-a] pyridine-3-carboxamide]: the MIC in data set [7] is 0.1 µg/mL; in data set [6] (setting [8]), < 1 µg/mL.

With `Cc1ccn2nc(C)c(C(=O)NCc3ccc(N4CCC(c5ccc(OC(F)(F)F)cc5)CC4)cc3)c2c1` [TJ170385, 2,5-dimethyl-N-(4-(4-(4-(trifluoromethoxy)phenyl)piperidine-1-yl)benzyl) pyrazolo [1,5-a] pyridine-3-carboxamide], in “in vivo”, the bioavailability stood at 94.5% and the “pharmacokinetic properties (in words)” value was “good pharmacokinetic properties”. Moreover, in the data set “in vivo” (iv, 2 mg/kg), the area under the curve AUC(0-inf) was found to be 2030 ng·h/mL, the concentration peaked (Cmax) at 1040 ng/mL and the “T^1/2” value is 10.933 h. In the data set “in vivo” (po, 10 mg/kg), the AUC(0-inf) came to 9590 ng·h/mL, the concentration peaked (Cmax) at 644 ng/mL, the “T^1/2” value was determined as 27.374 h and the Tmax amounted to 2 h. In data set [4], the “in vivo anti-tuberculosis activity (luminous values within live mice)” value is recorded as “obvious in vivo anti-tuberculosis activity”, the “in vivo anti-tuberculosis activity compared with the positive control Rifampicin” value is “equal to or better than that of the positive control Rifampicin” and the “spleen anti-tuberculosis activity compared with the positive control Rifampicin” value is reported as “bad than that of the positive control Rifampicin”. Besides, in data set [7], the MIC worked out at 0.01 µg/mL. The MIC in data set [6] (setting [8]) was < 1 µg/mL.

Consider `Cc1ccn2nc(C)c(C(=O)NCc3ccc(N4CCC(C(F)(F)F)CC4)cc3)c2c1` [TJ830149, 2,5-dimethyl-N-(4-(4-(trifluoromethyl)piperidine-1-yl)benzyl) pyrazolo [1,5-a] pyridine-3-carboxamide], for which the MIC in data set [6] (setting [9]) is < 1 µg/mL.

Take `Cc1ccn2nc(C)c(C(=O)NCc3cnc(-c4ccc(OC(F)(F)F)cc4)nc3)c2c1` [TJ830150, 2,5-Dimethyl-N-((2-(4-(trifluoromethoxy)phenyl)pyrimidine-5-yl)methyl) pyrazolo [1,5-a] pyridine-3-carboxamide]: the MIC in data set [6] (setting [9]) was < 1 µg/mL.

For the compound `Cc1ccn2nc(C)c(C(=O)NCc3ccc(-c4ccc(OC(F)(F)F)cc4)cc3)c2c1` [TJ830151, 2,5-dimethyl-N-((4′-(trifluoromethoxy)-[1,1′-biphenyl]-4-yl)methyl) pyrazolo [1,5-a] pyridine-3-carboxamide], the MIC in data set [6] (setting [9]) is < 1 µg/mL.

`Cc1ccn2nc(C)c(C(=O)NCc3ccc(N4CCN(c5ccc(F)cc5)CC4)cc3)c2c1` [TJ830152, N-(4-(4-(4-fluorophenyl)piperazine-1-yl)benzyl)-2,5-dimethyl-pyrazolo [1,5-a] pyridine-3-carboxamide]: in data set [6] (setting [9]), the MIC was < 1 µg/mL.

As to `Cc1ccn2nc(C)c(C(=O)NCc3ccc(Oc4ccc(OC(F)(F)F)cc4)cc3)c2c1` [TJ830153], the MIC in data set [6] (setting [9]) is < 1 µg/mL.

With `Cc1ccn2nc(C)c(C(=O)NCc3ccc(N4CCC(Oc5ccc(OC(F)(F)F)cc5)CC4)cc3)c2c1` [TJ830161, 2,5-dimethyl-N-(4-(4-(4-(trifluoromethoxy)phenoxy)piperidine-1-yl)benzyl) pyrazolo [1,5-a] pyridine-3-carboxamide], the MIC in data set [6] (setting [9]) is < 1 µg/mL.

`CCc1nn2ccc(Cl)cc2c1C(=O)NCc1ccc(F)cc1` [TJ4570004, 5-chloro-2-ethyl-N-(4-fluorobenzyl) pyrazolo [1,5-a] pyridine-3-carboxamide]: the MIC in data set [6] (setting [9]) is > 10 µg/mL.

As for `Cc1ccn2nc(C)c(C(=O)NCc3ccc(F)cc3)c2c1` [TJ4570006, N-(4-fluorobenzyl)-2,5-dimethylpyrazolo [1,5-a] pyridine-3-carboxamide], in data set [6] (setting [9]), the MIC fell in the range of 1 to 10 µg/mL (≈ 3.36 to 33.6 µM).

As for `NNC(=O)c1ccncc1` [isoniazid, reference compound], the MIC result in data set [7] was “<=0.1 μg/mL”.

The term bioavailability denotes dose-corrected exposure relative to a reference, in per cent. Lower therefore signals poor availability. The term AUC(0-inf) denotes the area under the concentration-time curve extrapolated to infinity. Read a high AUC(0-inf) as more exposure. By Cmax is commonly meant the peak of the concentration-time curve. By Tmax is commonly meant the time from dosing to the highest level.
